Measurements: patent publication US11053204B2, “Pyrimidinyloxy benzene derivatives as herbicides” (FMC Corporation, priority 2015, dated 2021)

Columns and labels:
Assay type in all cases: in vivo
kochia (Kochia scoparia) = assay: Test A preemergence, visual injury rating
How it was run: (§1)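 Compounds in non-phytotoxic solvent with surfactant applied as soil spray preemergence, or postemergence to plants 2-10 cm at one- to two-leaf stage, in loam/sand. After approximately 10 days in greenhouse, injury rated visually versus untreated controls, 0 (no effect) to 100 (complete control).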

[1] = tested on: giant foxtail (Setaria faberii); assay: Test A preemergence, visual injury rating
How it was run: as §1

[2] = tested on: Italian ryegrass (Lolium multiflorum); assay: Test A preemergence, visual injury rating
How it was run: as §1

[3] = tested on: pigweed (Amaranthus retroflexus); assay: Test A preemergence, visual injury rating
How it was run: as §1

[4] = tested on: barnyardgrass (Echinochloa crus-galli); assay: Test A preemergence, visual injury rating
How it was run: as §1

[5] = tested on: ragweed (common ragweed, Ambrosia elatior); assay: Test A preemergence, visual injury rating
How it was run: as §1

soybean (Glycine max) = assay: Test C postemergence, plant response rating; settings: for Soybean plant response rating: scale 0 to 100 (0 no effect, 100 complete control)
How it was run: (§2)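 Preemergence: seeds sown in loam–sand blend or silt loam and sprayed with test chemicals in a non-phytotoxic surfactant-containing solvent. Postemergence: potted plants at 2–18 cm (1–4-leaf stage) sprayed with the same formulation. After 13–15 d in greenhouse, visual rating versus controls on 0 (no effect) to 100 (complete control) scale.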

[6] = tested on: crabgrass, large (large crabgrass, Digitaria sanguinalis); assay: Test C postemergence, plant response rating; settings: for Crabgrass, Large plant response rating: scale 0 to 100 (0 no effect, 100 complete control)
How it was run: as §2

[7] = tested on: blackgrass (Alopecurus myosuroides); assay: Test C postemergence, plant response rating; settings: for Plant response rating, Blackgrass: scale 0 to 100; for Blackgrass plant response rating: scale 0 to 100 (0 no effect, 100 complete control)
How it was run: as §2

[8] = tested on: nutsedge, yellow (yellow nutsedge, Cyperus esculentus); assay: Test C postemergence, plant response rating; settings: for Nutsedge, Yellow plant response rating: scale 0 to 100 (0 no effect, 100 complete control)
How it was run: as §2

[9] = tested on: wheat (winter wheat, Triticum aestivum); assay: Test C postemergence, plant response rating
How it was run: as §2

[10] = tested on: chickweed (common chickweed, Stellaria media); assay: Test C postemergence, plant response rating; settings: for Chickweed plant response rating: scale 0 to 100 (0 no effect, 100 complete control)
How it was run: as §2

[11] = tested on: foxtail, giant (giant foxtail, Setaria faberii); assay: Test C postemergence, plant response rating; settings: for Foxtail, Giant plant response rating: scale 0 to 100 (0 no effect, 100 complete control)
How it was run: as §2

[12] = tested on: ryegrass, Italian (Italian ryegrass, Lolium multiflorum); assay: Test C postemergence, plant response rating; settings: for Ryegrass, Italian plant response rating: scale 0 to 100 (0 no effect, 100 complete control)
How it was run: as §2

[13] = tested on: lambsquarters (Chenopodium album); assay: Test C postemergence, plant response rating; settings: for Lambsquarters plant response rating: scale 0 to 100 (0 no effect, 100 complete control)
How it was run: as §2

[14] = tested on: galium (catchweed bedstraw, Galium aparine); assay: Test C postemergence, plant response rating; settings: for Galium plant response rating: scale 0 to 100 (0 no effect, 100 complete control)
How it was run: as §2

corn (Zea mays) = assay: Test C postemergence, plant response rating; settings: for Corn plant response rating: scale 0 to 100 (0 no effect, 100 complete control)
How it was run: as §2

[15] = tested on: oat, wild (wild oat Avena fatua); assay: Test C postemergence, plant response rating; settings: for Oat, Wild plant response rating: scale 0 to 100 (0 no effect, 100 complete control)
How it was run: as §2

[16] = 31 g ai/ha, 0 to 100 scale, 0 no effect, 100 complete control
[17] = 125 g ai/ha, 0 to 100 scale (0 no effect, 100 complete control)

SMILES: FC(F)(F)CCCc1c(Br)cccc1Oc1ncc(Cl)cn1 [Compound 89]
- Plant response rating, Kochia (kochia (Kochia scoparia); [16]): 10
- Kochia plant response rating (kochia (Kochia scoparia); [17]): 50
- Plant response rating, Foxtail, Giant [1, 16]: 10
- Foxtail, Giant plant response rating [1, 17]: 50
- Plant response rating, Ryegrass, Italian [2, 16]: 0
- Ryegrass, Italian plant response rating [2, 17]: 20
- Plant response rating, Pigweed [3, 16]: 10
- Pigweed plant response rating [3, 17]: 100
- Plant response rating, Barnyardgrass [4, 16]: 20
- Barnyardgrass plant response rating [4, 17]: 90
- Plant response rating, Ragweed [5, 16]: 0
- Ragweed plant response rating [5, 17]: 0
- Plant response rating, Soybean (soybean (Glycine max); 16 g ai/ha, scale of 0 to 100): 35
- Plant response rating, Soybean (soybean (Glycine max); 31 g ai/ha, scale 0 to 100): 40
- Soybean plant response rating (soybean (Glycine max); 62 g ai/ha): 65
- Soybean plant response rating (soybean (Glycine max); 125 g ai/ha): 70
- Plant response rating, Crabgrass, Large ([6]; 16 g ai/ha, scale of 0 to 100): 55
- Plant response rating, Crabgrass, Large ([6]; 31 g ai/ha, scale 0 to 100): 60
- Crabgrass, Large plant response rating ([6]; 62 g ai/ha): 85
- Crabgrass, Large plant response rating ([6]; 125 g ai/ha): 90
- Plant response rating, Blackgrass ([7]; 16 g ai/ha): 10
- Plant response rating, Blackgrass ([7]; 31 g ai/ha): 15
- Blackgrass plant response rating ([7]; 62 g ai/ha): 30
- Blackgrass plant response rating ([7]; 125 g ai/ha): 45
- Plant response rating, Nutsedge, Yellow ([8]; 16 g ai/ha, scale of 0 to 100): 0
- Plant response rating, Nutsedge, Yellow ([8]; 31 g ai/ha, scale 0 to 100): 0
- Nutsedge, Yellow plant response rating ([8]; 62 g ai/ha): 0
- Nutsedge, Yellow plant response rating ([8]; 125 g ai/ha): 5
- Plant response rating, Wheat ([9]; 16 g ai/ha, scale of 0 to 100): 0
- Plant response rating, Wheat ([9]; 31 g ai/ha, scale 0 to 100): 10
- Wheat plant response rating ([9]; 125 g ai/ha, scale 0 to 100 (0 no effect, 100 complete control)): 15
- Plant response rating, Chickweed ([10]; 16 g ai/ha, scale of 0 to 100): 65
- Plant response rating, Chickweed ([10]; 31 g ai/ha, scale 0 to 100): 95
- Chickweed plant response rating ([10]; 62 g ai/ha): 85
- Chickweed plant response rating ([10]; 125 g ai/ha): 100
- Plant response rating, Foxtail, Giant ([11]; 16 g ai/ha, scale of 0 to 100): 10
- Plant response rating, Foxtail, Giant ([11]; 31 g ai/ha, scale 0 to 100): 10
- Foxtail, Giant plant response rating ([11]; 62 g ai/ha): 10
- Foxtail, Giant plant response rating ([11]; 125 g ai/ha): 20
- Plant response rating, Ryegrass, Italian ([12]; 16 g ai/ha, scale of 0 to 100): 5
- Plant response rating, Ryegrass, Italian ([12]; 31 g ai/ha, scale 0 to 100): 5
- Ryegrass, Italian plant response rating ([12]; 62 g ai/ha): 5
- Ryegrass, Italian plant response rating ([12]; 125 g ai/ha): 10
- Plant response rating, Lambsquarters ([13]; 16 g ai/ha, scale of 0 to 100): 70
- Plant response rating, Lambsquarters ([13]; 31 g ai/ha, scale 0 to 100): 75
- Lambsquarters plant response rating ([13]; 62 g ai/ha): 100
- Lambsquarters plant response rating ([13]; 125 g ai/ha): 100
- Plant response rating, Galium ([14]; 16 g ai/ha, scale of 0 to 100): 75
- Plant response rating, Galium ([14]; 31 g ai/ha, scale 0 to 100): 75
- Galium plant response rating ([14]; 62 g ai/ha): 80
- Galium plant response rating ([14]; 125 g ai/ha): 90
- Plant response rating, Corn (corn (Zea mays); 16 g ai/ha, scale of 0 to 100): 15
- Plant response rating, Corn (corn (Zea mays); 31 g ai/ha, scale 0 to 100): 15
- Corn plant response rating (corn (Zea mays); 62 g ai/ha): 15
- Corn plant response rating (corn (Zea mays); 125 g ai/ha): 20
- Plant response rating, Oat, Wild ([15]; 16 g ai/ha, scale of 0 to 100): 15
- Plant response rating, Oat, Wild ([15]; 31 g ai/ha, scale 0 to 100): 10
- Oat, Wild plant response rating ([15]; 62 g ai/ha): 40
- Oat, Wild plant response rating ([15]; 125 g ai/ha): 30
